In experiment [1] the target is Human immunodeficiency virus type 1 integrase (Human immunodeficiency virus 1) (UniProt Q7ZJM1). As to the kind of experiment: Binding affinity to HIV-1 integrase measured after overnight incubation by chemiluminescence analysis relative to IN 174-188. Set-up: concentration or dose not given beside the values.
In experiment [2] the test system is Human immunodeficiency virus 1. As to the kind of experiment: Binding affinity to HLT-tagged HIV-1 Rev measured after overnight incubation by chemiluminescence analysis relative to IN 174-188. Also noted: concentration or dose not given beside the values.

Square brackets hold non-standard residues; d marks the D form. Peptide text beside a SMILES is read from it. NMeT = CN[C@H](C(=O)O)[C@@H](C)O; NMeK = CN[C@@H](CCCCN)C(=O)O; NMeV = CN[C@H](C(=O)O)C(C)C

Human immunodeficiency virus type 1 integrase (Human immunodeficiency virus 1), sequence (Q7ZJM1 as listed by the source): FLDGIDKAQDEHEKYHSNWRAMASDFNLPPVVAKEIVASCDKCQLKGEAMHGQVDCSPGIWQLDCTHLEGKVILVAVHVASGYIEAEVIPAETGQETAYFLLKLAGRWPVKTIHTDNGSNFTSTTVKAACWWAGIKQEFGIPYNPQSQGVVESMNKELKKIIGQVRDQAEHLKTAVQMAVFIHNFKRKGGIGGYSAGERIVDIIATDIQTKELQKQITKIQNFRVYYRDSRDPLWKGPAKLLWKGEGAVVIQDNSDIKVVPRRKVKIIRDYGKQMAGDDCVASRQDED

In the case of `CC[C@H](C)[C@H](NC(=O)[C@@H](Cc1ccccc1)NC(=O)[C@@H](NC(=O)[C@H](C)NC(=O)[C@H](CCSC)NC(=O)[C@H](CCC(N)=O)NC(=O)[C@@H](NC(=O)[C@H](C)NC(=O)[C@@H](N)[C@@H](C)O)C(C)C)C(C)C)C(=O)N[C@@H](Cc1cnc[nH]1)C(=O)N[C@@H](CC(N)=O)C(=O)N[C@@H](Cc1ccccc1)C(=O)N[C@@H](CCCCN)C(=O)N[C@@H](CCCNC(=N)N)C(=O)N[C@@H](CCCCN)C(=O)O`, the results for the Activity in experiment [1] and in experiment [2] were 120% and 231%, respectively.

On to `CC[C@H](C)[C@H](NC(=O)[C@H](Cc1ccccc1)NC(=O)[C@@H](NC(=O)[C@H](C)NC(=O)[C@H](CCSC)NC(=O)[C@H](CCC(N)=O)NC(=O)[C@@H](NC(=O)[C@H](C)NC(=O)[C@@H](N)[C@@H](C)O)C(C)C)C(C)C)C(=O)N[C@@H](Cc1cnc[nH]1)C(=O)N[C@@H](CC(N)=O)C(=O)N[C@@H](Cc1ccccc1)C(=O)N[C@@H](CCCCN)C(=O)O` (H-TAVQMAVFIHNFK-OH), for which the Activity in experiment [1] turned out to be 120%; in experiment [2], 127%.

As for `CC[C@H](C)[C@H](NC(=O)[C@H](Cc1ccccc1)NC(=O)[C@@H](NC(=O)[C@H](C)NC(=O)[C@H](CCSC)NC(=O)[C@H](CCC(N)=O)NC(=O)[C@@H](NC(=O)[C@H](C)NC(=O)[C@@H](N)[C@@H](C)O)C(C)C)C(C)C)C(=O)O` (H-TAVQMAVFI-OH), the Activity in experiment [1] and in experiment [2] was 0% each time.

Consider `CC[C@H](C)[C@H](NC(=O)[C@H](Cc1ccccc1)NC(=O)[C@@H](NC(=O)[C@H](C)NC(=O)[C@H](CCSC)NC(=O)[C@H](CCC(N)=O)NC(=O)[C@@H](NC(=O)[C@H](C)NC(=O)[C@@H](N)[C@@H](C)O)C(C)C)C(C)C)C(=O)N[C@@H](Cc1cnc[nH]1)C(=O)N[C@@H](CC(N)=O)C(=O)N[C@@H](Cc1ccccc1)C(=O)N[C@@H](CCCCN)C(=O)N[C@@H](CCCNC(=N)N)C(=O)N(C)[C@@H](CCCCN)C(=O)O` (H-TAVQMAVFIHNFKR[NMeK]-OH), for which the Activity amounted to 117% in experiment [1] and 201% in experiment [2].

In the case of `CC[C@H](C)[C@H](NC(=O)[C@H](Cc1ccccc1)NC(=O)[C@H](NC(=O)[C@H](C)NC(=O)[C@H](CCSC)NC(=O)[C@H](CCC(N)=O)NC(=O)[C@@H](NC(=O)[C@H](C)NC(=O)[C@@H](N)[C@@H](C)O)C(C)C)C(C)C)C(=O)N[C@@H](Cc1cnc[nH]1)C(=O)N[C@@H](CC(N)=O)C(=O)N[C@@H](Cc1ccccc1)C(=O)N[C@@H](CCCCN)C(=O)N[C@@H](CCCNC(=N)N)C(=O)N[C@@H](CCCCN)C(=O)O`, the Activity in experiment [1] was 108%; in experiment [2] it was 152%.

Regarding `CSCC[C@H](NC(=O)[C@H](CCC(N)=O)NC(=O)[C@@H](NC(=O)[C@H](C)NC(=O)[C@@H](N)[C@@H](C)O)C(C)C)C(=O)N[C@@H](C)C(=O)N[C@H](C(=O)N[C@@H](Cc1ccccc1)C(=O)N[C@@H](C)C(=O)N[C@@H](Cc1cnc[nH]1)C(=O)N[C@@H](CC(N)=O)C(=O)N[C@@H](Cc1ccccc1)C(=O)N[C@@H](CCCCN)C(=O)N[C@@H](CCCNC(=N)N)C(=O)N[C@@H](CCCCN)C(=O)O)C(C)C` (H-TAVQMAVFAHNFKRK-OH), the results for the Activity in experiment [1] and in experiment [2] were 156% and 254%, respectively.

Take `CC[C@H](C)[C@H](NC(=O)[C@@H](N)Cc1ccccc1)C(=O)N[C@@H](Cc1cnc[nH]1)C(=O)N[C@@H](CC(N)=O)C(=O)N[C@@H](Cc1ccccc1)C(=O)N[C@@H](CCCCN)C(=O)N[C@@H](CCCNC(=N)N)C(=O)N[C@@H](CCCCN)C(=O)O` (H-FIHNFKRK-OH): the Activity in experiment [1] worked out at 133%; in experiment [2], 69%.

Consider `CC[C@H](C)[C@H](NC(=O)[C@H](Cc1ccccc1)NC(=O)[C@@H](NC(=O)[C@H](C)NC(=O)[C@H](CCSC)NC(=O)[C@H](CCC(N)=O)NC(=O)[C@@H](NC(=O)[C@H](C)NC(=O)[C@@H](N)[C@@H](C)O)C(C)C)C(C)C)C(=O)N[C@@H](Cc1cnc[nH]1)C(=O)N[C@@H](CC(N)=O)C(=O)N[C@@H](Cc1ccccc1)C(=O)N[C@@H](CCCCN)C(=O)N[C@@H](CCCNC(=N)N)C(=O)O` (H-TAVQMAVFIHNFKR-OH), for which the Activity is 87% in experiment [1] and 114% in experiment [2].

With `CC[C@H](C)[C@H](NC(=O)[C@H](Cc1ccccc1)NC(=O)[C@@H](NC(=O)[C@H](C)NC(=O)[C@H](CCSC)NC(=O)[C@H](CCC(N)=O)NC(=O)[C@@H](NC(=O)[C@H](C)NC(=O)[C@H](N)[C@@H](C)O)C(C)C)C(C)C)C(=O)N[C@@H](Cc1cnc[nH]1)C(=O)N[C@@H](CC(N)=O)C(=O)N[C@@H](Cc1ccccc1)C(=O)N[C@@H](CCCCN)C(=O)N[C@@H](CCCNC(=N)N)C(=O)N[C@@H](CCCCN)C(=O)O`, the Activity in experiment [1] amounted to 73%; in experiment [2] it was 141%.

For the compound `CC[C@H](C)[C@H](NC(=O)[C@H](Cc1ccccc1)NC(=O)[C@H](C(C)C)N(C)C(=O)[C@H](C)NC(=O)[C@H](CCSC)NC(=O)[C@H](CCC(N)=O)NC(=O)[C@@H](NC(=O)[C@H](C)NC(=O)[C@@H](N)[C@@H](C)O)C(C)C)C(=O)N[C@@H](Cc1cnc[nH]1)C(=O)N[C@@H](CC(N)=O)C(=O)N[C@@H](Cc1ccccc1)C(=O)N[C@@H](CCCCN)C(=O)N[C@@H](CCCNC(=N)N)C(=O)N[C@@H](CCCCN)C(=O)O` (H-TAVQMA[NMeV]FIHNFKRK-OH), the values for the Activity in experiment [1] and in experiment [2] were 67% and 55%, respectively.

On to `CC[C@H](C)[C@H](NC(=O)[C@H](Cc1ccccc1)NC(=O)[C@@H](NC(=O)[C@H](C)NC(=O)[C@H](CCSC)NC(=O)[C@H](CCC(N)=O)NC(=O)[C@@H](NC(=O)[C@H](C)NC(=O)[C@@H](NC)[C@@H](C)O)C(C)C)C(C)C)C(=O)N[C@@H](Cc1cnc[nH]1)C(=O)N[C@@H](CC(N)=O)C(=O)N[C@@H](Cc1ccccc1)C(=O)N[C@@H](CCCCN)C(=O)N[C@@H](CCCNC(=N)N)C(=O)N[C@@H](CCCCN)C(=O)O` (H-[NMeT]AVQMAVFIHNFKRK-OH), for which the results for the Activity in experiment [1] and in experiment [2] were 84% and 93%, respectively.

In the case of `CC[C@H](C)[C@H](NC(=O)[C@H](Cc1ccccc1)NC(=O)[C@@H](NC(=O)[C@H](C)NC(=O)[C@@H](N)CCSC)C(C)C)C(=O)N[C@@H](Cc1cnc[nH]1)C(=O)N[C@@H](CC(N)=O)C(=O)N[C@@H](Cc1ccccc1)C(=O)N[C@@H](CCCCN)C(=O)N[C@@H](CCCNC(=N)N)C(=O)N[C@@H](CCCCN)C(=O)O` (H-MAVFIHNFKRK-OH), the Activity in experiment [1] stood at 106%; in experiment [2], 88%.

Regarding `CC[C@H](C)[C@H](NC(=O)[C@H](Cc1ccccc1)NC(=O)[C@@H](NC(=O)[C@H](C)NC(=O)[C@H](CCSC)NC(=O)[C@@H](CCC(N)=O)NC(=O)[C@@H](NC(=O)[C@H](C)NC(=O)[C@@H](N)[C@@H](C)O)C(C)C)C(C)C)C(=O)N[C@@H](Cc1cnc[nH]1)C(=O)N[C@@H](CC(N)=O)C(=O)N[C@@H](Cc1ccccc1)C(=O)N[C@@H](CCCCN)C(=O)N[C@@H](CCCNC(=N)N)C(=O)N[C@@H](CCCCN)C(=O)O`, the Activity in experiment [1] amounted to 154%; in experiment [2], 173%.

For the compound `CC[C@H](C)[C@H](NC(=O)[C@H](Cc1ccccc1)NC(=O)[C@@H](NC(=O)[C@H](C)NC(=O)[C@H](CCSC)NC(=O)[C@H](CCC(N)=O)NC(=O)[C@@H](NC(=O)[C@H](C)NC(=O)[C@@H](N)[C@@H](C)O)C(C)C)C(C)C)C(=O)N[C@@H](Cc1cnc[nH]1)C(=O)N[C@@H](CC(N)=O)C(=O)N[C@@H](Cc1ccccc1)C(=O)O` (H-TAVQMAVFIHNF-OH), the Activity in experiment [1] and in experiment [2] was 0% in each case.

In the case of `CC[C@H](C)[C@H](NC(=O)[C@H](Cc1ccccc1)NC(=O)[C@@H](NC(=O)[C@@H](C)NC(=O)[C@H](CCSC)NC(=O)[C@H](CCC(N)=O)NC(=O)[C@@H](NC(=O)[C@H](C)NC(=O)[C@@H](N)[C@@H](C)O)C(C)C)C(C)C)C(=O)N[C@@H](Cc1cnc[nH]1)C(=O)N[C@@H](CC(N)=O)C(=O)N[C@@H](Cc1ccccc1)C(=O)N[C@@H](CCCCN)C(=O)N[C@@H](CCCNC(=N)N)C(=O)N[C@@H](CCCCN)C(=O)O`, the figures for the Activity in experiment [1] and in experiment [2] were 142% and 194%, respectively.

As for `CC[C@H](C)[C@H](NC(=O)[C@H](Cc1ccccc1)NC(=O)[C@@H](NC(=O)[C@H](C)NC(=O)[C@H](CCSC)NC(=O)[C@H](CCC(N)=O)NC(=O)[C@H](NC(=O)[C@H](C)NC(=O)[C@@H](N)[C@@H](C)O)C(C)C)C(C)C)C(=O)N[C@@H](Cc1cnc[nH]1)C(=O)N[C@@H](CC(N)=O)C(=O)N[C@@H](Cc1ccccc1)C(=O)N[C@@H](CCCCN)C(=O)N[C@@H](CCCNC(=N)N)C(=O)N[C@@H](CCCCN)C(=O)O`, the figures for the Activity in experiment [1] and in experiment [2] were 115% and 226%, respectively.

On to `CC[C@H](C)[C@H](NC(=O)[C@H](Cc1ccccc1)NC(=O)[C@@H](NC(=O)[C@H](C)NC(=O)[C@H](CCSC)NC(=O)[C@H](C)NC(=O)[C@@H](NC(=O)[C@H](C)NC(=O)[C@@H](N)[C@@H](C)O)C(C)C)C(C)C)C(=O)N[C@@H](Cc1cnc[nH]1)C(=O)N[C@@H](CC(N)=O)C(=O)N[C@@H](Cc1ccccc1)C(=O)N[C@@H](CCCCN)C(=O)N[C@@H](CCCNC(=N)N)C(=O)N[C@@H](CCCCN)C(=O)O` (H-TAVAMAVFIHNFKRK-OH), for which the Activity is 83% in experiment [1] and 79% in experiment [2].

In the case of `CC[C@H](C)[C@H](NC(=O)[C@H](Cc1ccccc1)NC(=O)[C@@H](NC(=O)[C@H](C)NC(=O)[C@H](CCSC)NC(=O)[C@H](CCC(N)=O)NC(=O)[C@@H](NC(=O)[C@H](C)NC(=O)[C@@H](N)[C@@H](C)O)C(C)C)C(C)C)C(=O)N[C@@H](Cc1cnc[nH]1)C(=O)N[C@@H](CC(N)=O)C(=O)N[C@@H](Cc1ccccc1)C(=O)N[C@@H](CCCCN)C(=O)N[C@@H](C)C(=O)N[C@@H](CCCCN)C(=O)O` (H-TAVQMAVFIHNFKAK-OH), the Activity came to 127% in experiment [1] and 234% in experiment [2].

`CC[C@H](C)[C@H](NC(=O)[C@H](C)NC(=O)[C@@H](NC(=O)[C@H](C)NC(=O)[C@H](CCSC)NC(=O)[C@H](CCC(N)=O)NC(=O)[C@@H](NC(=O)[C@H](C)NC(=O)[C@@H](N)[C@@H](C)O)C(C)C)C(C)C)C(=O)N[C@@H](Cc1cnc[nH]1)C(=O)N[C@@H](CC(N)=O)C(=O)N[C@@H](Cc1ccccc1)C(=O)N[C@@H](CCCCN)C(=O)N[C@@H](CCCNC(=N)N)C(=O)N[C@@H](CCCCN)C(=O)O` (H-TAVQMAVAIHNFKRK-OH): the Activity in experiment [1] was determined as 104%; in experiment [2], 216%.

The record behind these values is ChEMBL document CHEMBL3217454, “Structureactivity relationship studies using peptide arrays: the example of HIV-1 Revintegrase interaction” (Medchemcomm, 2013).
